In PubChem BioAssay AID192 (DTP/NCI, 2004) one finds T/C data, which are given here for 20 molecules.

The structures appear in SMILES notation. Values joined by “and” are separate entries in the source; they are usually repeats but may differ in a detail not shown here. Equal entries are not always repeated. Toxic doses and inconclusive results are not listed.

This experiment relates to BDF1 mice, B16 melanoma ip, median survival T/C. As to the kind of experiment: NCI In Vivo Anticancer Drug Screen. Data for tumor model B16 Melanoma (intraperitoneal) in B6D2F1 (BDF1) mice. The conditions noted are these: endpoint: median survival time, higher = longer survival. The method in brief:
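Mice with transplantable tumors; drug vs vehicle groups; endpoint survival or tumor size; value = T/C.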

Where [1] appears, read: dose: 25.0 mg/kg/injection, schedule: Q01DX009 (ip), vehicle: saline.
The mark [2] stands for this setting: dose: 50.0 mg/kg/injection, schedule: Q01DX009 (ip), vehicle: saline.
[3] abbreviates: dose: 100.0 mg/kg/injection, schedule: Q01DX009 (ip), vehicle: saline.
The mark [4] stands for this setting: dose: 200.0 mg/kg/injection, schedule: Q01DX009 (ip), vehicle: saline.
The mark [5] stands for this setting: dose: 400.0 mg/kg/injection, schedule: Q01DX009 (ip), vehicle: saline.
Where [6] appears, read: dose: 6.25 mg/kg/injection, schedule: Q01DX009 (ip), vehicle: saline.
The mark [7] stands for this setting: dose: 50.0 mg/kg/injection, schedule: Q01DX009 (ip), vehicle: Klucel (hydroxypropylcellulose) (HPC).
The mark [8] stands for this setting: dose: 100.0 mg/kg/injection, schedule: Q01DX009 (ip), vehicle: saline with Tween-80.
The mark [9] stands for this setting: dose: 200.0 mg/kg/injection, schedule: Q01DX009 (ip), vehicle: saline with Tween-80.
[10] abbreviates: dose: 400.0 mg/kg/injection, schedule: Q01DX009 (ip), vehicle: saline with Tween-80.
Setting [11] is: dose: 6.25 mg/kg/injection, schedule: Q01DX009 (ip), vehicle: Klucel (hydroxypropylcellulose) (HPC).
Where [12] appears, read: dose: 12.5 mg/kg/injection, schedule: Q01DX009 (ip), vehicle: Klucel (hydroxypropylcellulose) (HPC).
[13] abbreviates: dose: 25.0 mg/kg/injection, schedule: Q01DX009 (ip), vehicle: Klucel (hydroxypropylcellulose) (HPC).
The mark [14] stands for this setting: dose: 0.5 mg/kg/injection, schedule: Q01DX009 (ip), vehicle: saline with Tween-80.
Where [15] appears, read: dose: 1.0 mg/kg/injection, schedule: Q01DX009 (ip), vehicle: saline with Tween-80.
[16] abbreviates: dose: 2.0 mg/kg/injection, schedule: Q01DX009 (ip), vehicle: saline with Tween-80.

For `O=C1NC(O)CCN1C1OC(CO)C(O)C1O` (stereo unspecified), the T/C is 111 % of control and 124 % of control under setting [1]; 110 % of control and 121 % of control under setting [2]; 102 % of control and 106 % of control under setting [3]; 96 % of control and 120 % of control under setting [4]; 106 % of control and 118 % of control under setting [5]; 105 % of control and 107 % of control (dose: 800.0 mg/kg/injection, schedule: Q01DX009 (ip), vehicle: saline).

Take `CCN(CC)CCOc1ccc(NC2=C(Cl)C(=O)C(Nc3ccc(OCCN(CC)CC)cc3)=C(Cl)C2=O)cc1`: the T/C by setting is: (dose: 6.25 mg/kg/injection, schedule: Q01DX009 (ip), vehicle: saline + alcohol) 95 % of control; (dose: 12.5 mg/kg/injection, schedule: Q01DX009 (ip), vehicle: saline + alcohol) 98 % of control; (dose: 25.0 mg/kg/injection, schedule: Q01DX009 (ip), vehicle: saline + alcohol) 91 % of control.

Regarding `c1ccc(CCN2CCCCC2)nc1`, the T/C by setting is: (dose: 1.56 mg/kg/injection, schedule: Q01DX009 (ip), vehicle: saline) 109 % of control; (dose: 3.13 mg/kg/injection, schedule: Q01DX009 (ip), vehicle: saline) 106 % of control; under setting [6], 100 % of control.

In the case of `Nc1ccccc1SC1CC(=O)N(c2ccc(Br)cc2Cl)C1=O` (stereo unspecified), the T/C under setting [7] was 94 % of control.

With `O=C(C=C(C(F)(F)F)C(F)(F)F)c1cccc(S(=O)(=O)F)c1`, the T/C is 86 % of control (dose: 1.56 mg/kg/injection, schedule: Q01DX009 (ip), vehicle: saline with Tween-80); 93 % of control (dose: 3.13 mg/kg/injection, schedule: Q01DX009 (ip), vehicle: saline with Tween-80); 89 % of control (dose: 6.25 mg/kg/injection, schedule: Q01DX009 (ip), vehicle: saline with Tween-80); 105 % of control (dose: 8.0 mg/kg/injection, schedule: Q04DX003 (ip), vehicle: saline); 105 % of control (dose: 12.0 mg/kg/injection, schedule: Q04DX003 (ip), vehicle: saline); 110 % of control (dose: 18.0 mg/kg/injection, schedule: Q04DX003 (ip), vehicle: saline).

In the case of `NC(=S)c1cn(C2OC(CO)C(O)C2O)c2ncnc(N)c12` (stereo unspecified), the T/C is, setting by setting: (dose: 2.5 mg/kg/injection, schedule: Q01DX009 (ip), vehicle: saline) 89 % of control; (dose: 5.0 mg/kg/injection, schedule: Q01DX009 (ip), vehicle: saline) 91 % of control.

In the case of `NC(=O)CN1C(=O)c2ccccc2C1=O`, the T/C under setting [8] is 97 % of control, the T/C under setting [9] was 104 % of control and the T/C under setting [10] was 97 % of control.

As for `O=c1ncccn1[C@@H]1O[C@H](CO)[C@H](O)C1O` (stereo partly specified), the T/C reads like this: under setting [1], 119 % of control; under setting [2], 115 % of control; under setting [5], 166 % of control.

For `O=C1C(Cl)=C(c2ccccc2)C(=O)C(Cl)=C1c1ccccc1`, the T/C by setting is: under setting [11], 114 % of control; under setting [12], 106 % of control; under setting [13], 87 % of control; under setting [7], 94 % of control.

For the molecule `OCCc1ccccc1`, the T/C was 93 % of control (dose: 31.3 mg/kg/injection, schedule: Q01DX009 (ip), vehicle: saline with Tween-80); 100 % of control (dose: 50.0 mg/kg/injection, schedule: Q01DX009 (ip), vehicle: saline with Tween-80); 95 % of control (dose: 62.5 mg/kg/injection, schedule: Q01DX009 (ip), vehicle: saline with Tween-80); 97 % of control under setting [8]; 100 % of control (dose: 125.0 mg/kg/injection, schedule: Q01DX009 (ip), vehicle: saline with Tween-80); 105 % of control under setting [9]. For the same molecule, under “dose: 250.0 mg/kg/injection, schedule: Q01DX009 (ip), vehicle: saline with Tween-80”, the T/C was 93 % of control.

As to `CCN(CC)C(C(=O)Nc1ccccc1)C(=O)Nc1ccccc1`, the T/C was 100 % of control under setting [8], 90 % of control under setting [9] and 95 % of control under setting [10].

Regarding `O=P(O)(O)OCCCl`, the T/C by setting is: (dose: 100.0 mg/kg/injection, schedule: Q04DX003 (ip), vehicle: Klucel (hydroxypropylcellulose) (HPC)) 100 % of control; (dose: 200.0 mg/kg/injection, schedule: Q04DX003 (ip), vehicle: Klucel (hydroxypropylcellulose) (HPC)) 94 % of control; (dose: 400.0 mg/kg/injection, schedule: Q04DX003 (ip), vehicle: Klucel (hydroxypropylcellulose) (HPC)) 103 % of control.

In the case of `N#Cc1ccc(Br)cc1[N+](=O)[O-]`, the T/C reads like this: (dose: 0.39 mg/kg/injection, schedule: Q01DX009 (ip), vehicle: Klucel (hydroxypropylcellulose) (HPC)) 93 % of control; (dose: 0.78 mg/kg/injection, schedule: Q01DX009 (ip), vehicle: Klucel (hydroxypropylcellulose) (HPC)) 93 % of control; (dose: 1.56 mg/kg/injection, schedule: Q01DX009 (ip), vehicle: Klucel (hydroxypropylcellulose) (HPC)) 106 % of control.

As for `OCCCCc1nccc2c1[nH]c1ccccc12`, the T/C under setting [12] was 97 % of control; the T/C under setting [13] was 95 % of control; the T/C under setting [7] was 95 % of control; the T/C (dose: 100.0 mg/kg/injection, schedule: Q01DX009 (ip), vehicle: Klucel (hydroxypropylcellulose) (HPC)) is 96 % of control.

With `CCCCCCCC(=O)OCC(=O)[C@]1(O)Cc2c(O)c3c(c(O)c2[C@@H](OC2CC(N)C(O)C(C)O2)C1)C(=O)c1c(OC)cccc1C3=O` (stereo partly specified), the T/C runs as follows: (dose: 0.25 mg/kg/injection, schedule: Q01DX009 (ip), vehicle: saline with Tween-80) 176 % of control; under setting [14], 222 % of control; under setting [15], 151 % of control and 212 % of control; (dose: 1.25 mg/kg/injection, schedule: Q01DX001 (ip), vehicle: water) 170 % of control; under setting [16], 150 % of control and 274 % of control; (dose: 2.5 mg/kg/injection, schedule: Q01DX001 (ip), vehicle: water) 117 % of control (2×) and 214 % of control. Also, the T/C reads like this: (dose: 5.0 mg/kg/injection, schedule: Q01DX001 (ip), vehicle: water) 97 % of control and 252 % of control; (dose: 10.0 mg/kg/injection, schedule: Q01DX001 (ip), vehicle: water) 227 % of control; (dose: 20.0 mg/kg/injection, schedule: Q01DX001 (ip), vehicle: water) 122 % of control; (dose: 1440.0 micrograms/kg/injection, schedule: Q01DX004 (ip), vehicle: other) 115 % of control; (dose: 2400.0 micrograms/kg/injection, schedule: Q01DX004 (ip), vehicle: other) 110 % of control; (dose: 4000.0 micrograms/kg/injection, schedule: Q01DX004 (ip), vehicle: other) 122 % of control.

`Cc1ccc(C(C)(C)C[P+](C)(c2ccccc2)c2ccccc2)cc1`: the T/C was 90 % of control under setting [11], 94 % of control under setting [12], 99 % of control under setting [13] and 93 % of control under setting [7].

For the molecule `O=C1OCC(O)C(O)C(O)C(O)C1O` (stereo unspecified), the T/C was 113 % of control under setting [3], 106 % of control under setting [4] and 120 % of control under setting [5].

For `CC(=O)[S][Pb]([c]1ccccc1)([c]1ccccc1)[c]1ccccc1`, the T/C runs as follows: under setting [14], 97 % of control; under setting [15], 93 % of control; under setting [16], 92 % of control; (dose: 4.0 mg/kg/injection, schedule: Q01DX009 (ip), vehicle: saline with Tween-80) 101 % of control.

With `ClCc1c2ccccc2c(CCl)c2ccccc12`, the T/C by setting is: (dose: 0.75 mg/kg/injection, schedule: Q01DX009 (ip), vehicle: Klucel (hydroxypropylcellulose) (HPC)) 114 % of control; (dose: 1.5 mg/kg/injection, schedule: Q01DX009 (ip), vehicle: Klucel (hydroxypropylcellulose) (HPC)) 119 % of control.

As for `C=C1C(=O)O[C@@H]2[C@H](O)[C@@H](C)[C@@H]3C=CC(=O)[C@@]3(C)[C@H](OC(=O)C=C(C)C)[C@H]12`, the T/C is, setting by setting: (dose: 2.5 mg/kg/injection, schedule: Q01DX009 (ip), vehicle: Klucel (hydroxypropylcellulose) (HPC)) 104 % of control; (dose: 3.12 mg/kg/injection, schedule: Q01DX009 (ip), vehicle: saline) 102 % of control; (dose: 5.0 mg/kg/injection, schedule: Q01DX009 (ip), vehicle: Klucel (hydroxypropylcellulose) (HPC)) 119 % of control; under setting [6], 86 % of control; (dose: 10.0 mg/kg/injection, schedule: Q01DX009 (ip), vehicle: Klucel (hydroxypropylcellulose) (HPC)) 113 % of control.
